{
  "source": "patent US20170197937A1",
  "about": "“NEW CRYSTAL FORM OF PANTOPRAZOLE SODIUM COMPOUND AND PREPARATION METHOD THEREFOR” (priority 2015, published 2017)",
  "key": {"[1]": {"experiment": "thermal stability test at 60° C. and 90% relative humidity", "type": "physicochemical", "conditions": "for change of polymorph, purity and appearance: 15 days at 60° C. and 90% relative humidity, sodium salt", "description": "The feature of the crystalline form M of Pantoprazole Sodium compound provided in the present invention is free of any crystalline solvents, and the melting point of the novel crystalline form is 192±2° C., which is higher than those of traditional crystalline forms. […] The product of the novel crystalline form has higher bulk density and fluidity with an appearance of stubby rod. The crystalline product especially has greater advantages in the preparation of formulations of Pantoprazole Sodium tablets, powder and subsequent other forms of such processes, due to the increased stability, fluidity and bulk density. At the same time, the product has better qualities in the process of filtering, washing, drying, packaging and storage due to the improvement of the properties described above.\n1 g of dried solid Pantoprazole Sodium was added to 20 mL of n-butanol and n-pentanol (1:1, in volume) to form a suspension, and then 0.005 g BHA was added to the suspension under stirring, the suspension was heated to […] to make all the solid dissolved; and 60 mL of cyclohexane was dropwise added to the solution at a speed of 0.12 ml/min under constant temperature to obtain a suspension; meanwhile, a ultrasonic wave with a frequency of 20 KHz, a power of 50 W was applied, followed by cooling the solution down to 0° C. at a rate of 0.2° C./min, continuing to stir for 1 h, vacuum filtrating the crystal slurry, and the residue was dried at 50° C. and under normal pressure for 48 h to constant weight, to obtain crystalline form M of Pantoprazole Sodium product. XRD pattern of the novel crystalline form M was shown in FIG. 1, comprising characteristic peaks (expressed in degrees 2θ) at 5.62, 11.62, 12.16, 13.80, 17.18, 18.80, 21.72, 23.44, 25.16 and 26.88. DSC thermogram of the novel crystalline form M was shown in FIG. 2, comprising an endothermic peak at 192.61° C. […] The product of the novel crystalline form M had higher bulk density and fluidity with an appearance of stubby rod, as shown in FIG. 3."}, "[2]": {"experiment": "storage stability at normal temperature and air humidity", "type": "physicochemical", "conditions": "100 days stored at normal temperature and air humidity", "description": "XRD pattern of the novel crystalline form M was shown in FIG. 1, comprising characteristic peaks (expressed in degrees 2θ) at 5.62, 11.62, 12.16, 13.80, 17.18, 18.80, 21.72, 23.44, 25.16 and 26.88. DSC thermogram of the novel crystalline form M was shown in FIG. 2, comprising an endothermic peak at 192.61° C. […] The product of the novel crystalline form M had higher bulk density and fluidity with an appearance of stubby rod, as shown in FIG. 3."}, "[3]": {"conditions": "cited from earlier work"}, "[4]": {"experiment": "acute toxicity test in Beagle dogs", "type": "in vivo", "conditions": "dog, in vivo, doses 44-225 mg/kg", "description": "(§1) 15 Beagle dogs were used for acute toxicity test, and given different doses of Pantoprazole Sodium of 44, 67, 100, 150 and 225 mg/kg. 3 animals belongs to each group and toxic reactions were observed after administration in each group. […] The Pantoprazole Sodium was divided into 5, 3 and […] groups by high, medium and low doses. The test period is 13 weeks. 80 healthy Wistar rats with males and females half and half were randomly divided into four groups, and were gavaged once a day regularly, drug withdrawal 2 weeks after administration 13 weeks, and then taken conventional toxicology observations and index detection."}, "Beagle dogs": {"system": "Beagle dogs", "experiment": "acute toxicity test in Beagle dogs", "type": "in vivo", "conditions": "at the dose of 150 mg/kg", "description": "as §1"}, "Wistar rats": {"system": "Wistar rats", "experiment": "long-term toxicity test in rats (13 weeks)", "description": "as §1"}, "ICR mice": {"system": "ICR mice", "conditions": "intravenous injection", "source_text": "(§2) The median lethal dose method was taken for the acute toxicity test in mice. 50 ICR mice met experimental requirements were selected and randomly divided into 5 dose groups by weight, 10 animals each group with males and females half and half. […] Toxic reactions were observed during administration and after administration in mice."}, "in vivo": {"experiment": "in vivo", "conditions": "both, ICR, mouse, iv", "source_text": "as §2"}, "[5]": {"experiment": "toxic reaction tests (overall comparison)", "type": "in vivo", "conditions": "versus existing Pantoprazole Sodium"}},
  "note": "Where a name gives a salt, the structure may show the parent alone.",
  "data": [
    {"molecule": "COc1ccnc(C[S+]([O-])c2nc3cc(OC(F)F)ccc3[n]2[Na+])c1OC", "note": "(stereo not drawn) [Example 2, 5-difluoromethoxy-2-[(3,4-dimethoxy-2-pyridinyl)methyl]sulfinyl-1H-benzimidazole sodium salt]", "values": [
      {"measurement": "change of polymorph, purity and appearance", "setting": "[1]", "result": "did not make any change"},
      {"measurement": "change of polymorph, purity and color", "setting": "[2]", "result": "did not make any change"}
    ]},
    {"molecule": "COc1ccnc(C[S+]([O-])c2nc3cc(OC(F)F)ccc3[n]2[Na+])c1OC", "note": "(stereo not drawn) [Pantoprazole Sodium, 5-difluoromethoxy-2-[(3,4-dimethoxy-2-pyridinyl)methyl]sulfinyl-1H-benzimidazole sodium salt]", "values": [
      {"measurement": "solubility in trichloromethane or ethyl ether", "setting": "[3]; trichloromethane or ethyl ether", "result": "almost insoluble"},
      {"measurement": "solubility in water or methanol", "setting": "[3]; water or methanol", "result": "soluble"}
    ]},
    {"molecule": "COc1ccnc(C[S+]([O-])c2nc3cc(OC(F)F)ccc3[n]2[Na+])c1OC", "note": "(stereo not drawn) [Example 1, 5-difluoromethoxy-2-[(3,4-dimethoxy-2-pyridinyl)methyl]sulfinyl-1H-benzimidazole sodium salt]", "values": [
      {"measurement": "change of polymorph, purity and appearance", "setting": "[1]", "result": "did not make any change"},
      {"measurement": "change of polymorph, purity and color", "setting": "[2]", "result": "did not make any change"},
      {"measurement": "LD50", "setting": "[4]", "result": 70, "unit": "mg/kg"},
      {"measurement": "toxic reactions", "setting": "Beagle dogs", "result": "tremors, increased salivation, limp, vomiting, and death after 20 min"},
      {"measurement": "toxicology observations and indexes, medium- and low-dose groups", "setting": "Wistar rats; Wistar rats, gavage once a day, 13 weeks, 3 and 1 g/kg", "result": "no significant difference occurred"},
      {"measurement": "dose of nontoxic response", "setting": "Wistar rats; both, Wistar, rat, in vivo, 13 weeks", "result": 3000, "unit": "mg/kg"},
      {"measurement": "histopathological examination", "setting": "Wistar rats; rat, in vivo", "result": "liver cell degeneration occurred in one rat"},
      {"measurement": "indexes after drug withdrawal", "setting": "Wistar rats; rat, in vivo", "result": "No obvious abnormality occurred"},
      {"measurement": "toxic reactions during administration", "setting": "ICR mice", "result": "struggling, shortness of breath, limbs limp, difficulty breathing, and severe to death"},
      {"measurement": "LD50", "setting": "in vivo", "result": 392, "unit": "mg/kg"}
    ]},
    {"molecule": "COc1ccnc(C[S+]([O-])c2nc3cc(OC(F)F)ccc3[n]2[Na+])c1OC", "note": "(stereo not drawn) [crystalline form M, 5-difluoromethoxy-2-[(3,4-dimethoxy-2-pyridinyl)methyl]sulfinyl-1H-benzimidazole sodium salt]", "values": [
      {"measurement": "change of polymorph, purity and appearance", "setting": "[1]", "result": "do not changed"},
      {"measurement": "thermal stability", "setting": "[1]; conclusion from 15 days at 60° C. and 90% relative humidity", "result": "better thermal stability"},
      {"measurement": "toxicity compared with existing Pantoprazole Sodium", "setting": "[5]", "result": "decreased toxicity"}
    ]},
    {"molecule": "COc1ccnc(C[S+]([O-])c2nc3cc(OC(F)F)ccc3[n]2[Na+])c1OC", "note": "(stereo not drawn) [Example 3, 5-difluoromethoxy-2-[(3,4-dimethoxy-2-pyridinyl)methyl]sulfinyl-1H-benzimidazole sodium salt]", "values": [
      {"measurement": "change of polymorph, purity and appearance", "setting": "[1]", "result": "did not make any change"},
      {"measurement": "change of polymorph, purity and color", "setting": "[2]", "result": "did not make any change"}
    ]},
    {"molecule": "COc1ccnc(C[S+]([O-])c2nc3cc(OC(F)F)ccc3[n]2[Na+])c1OC", "note": "(stereo not drawn) [Example 4, 5-difluoromethoxy-2-[(3,4-dimethoxy-2-pyridinyl)methyl]sulfinyl-1H-benzimidazole sodium salt]", "values": [
      {"measurement": "change of polymorph, purity and appearance", "setting": "[1]", "result": "did not make any change"},
      {"measurement": "change of polymorph, purity and color", "setting": "[2]", "result": "did not make any change"}
    ]}
  ]
}
